In patent publication US20110301087A1, “CRF1 RECEPTOR COMPOUNDS” (priority 2008, published 2011) one finds IC50 and inhibition data, which are given here for 13 compounds.

SMILES strings stand for the structures. Where a SMILES comes first, the peptide text is derived from it. The star is where a group is joined. Palmitoyl = CCCCCCCCCCCCCCCC(=O)*

The target of the assay is T1, CRF1 (Homo sapiens, UniProt P34998).
T1 construct: endogenously expresses functional CRF1; endogenous in cells; host or cells: Y-79 human retinoblastoma cells
T1 sequence (P34998 24-415): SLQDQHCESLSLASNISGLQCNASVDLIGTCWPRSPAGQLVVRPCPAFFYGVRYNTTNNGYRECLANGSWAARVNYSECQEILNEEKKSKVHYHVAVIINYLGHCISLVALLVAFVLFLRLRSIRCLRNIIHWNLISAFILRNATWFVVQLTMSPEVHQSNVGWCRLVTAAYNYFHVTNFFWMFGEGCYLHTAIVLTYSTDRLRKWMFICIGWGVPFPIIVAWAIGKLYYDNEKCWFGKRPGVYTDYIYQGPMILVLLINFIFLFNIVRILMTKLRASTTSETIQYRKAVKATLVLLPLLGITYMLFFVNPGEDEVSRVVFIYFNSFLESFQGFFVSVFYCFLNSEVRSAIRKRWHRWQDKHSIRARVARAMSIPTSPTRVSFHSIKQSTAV
In words: CRF1 assessment of cAMP (HTRF cAMP assay) in Y-79 cells, antagonist mode. Type of assay: cell-based. As to conditions: Y79 cells; for IC50: CRF1 cAMP screening, against agonist; for inhibition at 0.3 µM: 300 nM pepducin against agonist dose response, read-out: % Inhibition (± SD). The text has this:
HTRF (homogeneous time resolved fluorescence) is a technology developed by Cisbio Bioassays based on TR-FRET (time-resolved fluorescence resonance energy transfer). Cisbio Bioassays has developed a wide selection of HTRF-based assays compatible with whole cells, thereby enabling functional assays run under more physiological conditions. cAMP kits are based on a competitive immunoassay using cryptate-labeled anti-cAMP antibody and d2-labeled cAMP. This assay allows the measurement of increase in intracellular cAMP upon Gs-coupled receptor activation as well as decrease in forskolin stimulated increase in cAMP upon Gi-coupled receptor activation. Cells expressing CRF1 endogenously or via transfection can be used to assess compound pharmacology using cAMP assays as a means to measure the activity of adenylyl cyclase resulting from CRF1 activation or inhibition.
An example of the use of the cAMP assay can be assessing CRF activation of CRF1 in Y-79, a human retinoblastoma cell line which endogenously expresses functional CRF1. Y-79 cells were seeded into 96-well half area black plates at 30K/well in Hank's balanced salt solution with 50 mM HEPES, 0.1% BSA, 200 uM IBMX. Compounds to be tested for agonist activity were added to cells, incubated for 30 minutes at 37 degrees C. and assayed for cAMP concentration. To test for antagonist activity, compounds to be tested were added to cells, followed by the addition of agonist at an experimentally determined optimal concentration, generally the EC80. Plates were incubated for 30 minutes at 37 degrees C. and assayed for cAMP. To determine concentration of cAMP in each well, d2-labeled cAMP in Conjugate/Lysis buffer was added to wells. This addition lysed the cells and input a known concentration of labeled cAMP. This was followed by the addition of anti-cAMP antibody conjugated to cryptate. FRET occurs when cryptate-labeled antibody binds to d2-labeled cAMP. Therefore, the specific signal is inversely proportional to the concentration of cAMP in the sample. Conversion of signal to concentration of cAMP in the well was accomplished by comparing the FRET signal of sample to a standard curve generated using known concentrations of cAMP.

A word on the IC50: it is the concentration at which inhibition is half-maximal. Low readings indicate higher potency, high ones lower potency. As usually defined, the inhibition is the share of the control response that was lost under treatment. Regarding `CCCCCCCCCCCCCCCC(=O)N[C@H](C(=O)N[C@@H](C)C(=O)N[C@@H](CCCNC(=N)N)C(=O)N[C@@H](CC(C)C)C(=O)N[C@@H](CCCNC(=N)N)C(=O)N[C@@H](CCCCN)C(=O)N[C@@H](Cc1c[nH]c2ccccc12)C(=O)N[C@@H](CCSC)C(=O)N[C@@H](Cc1ccccc1)C(=O)N[C@H](C(N)=O)[C@@H](C)CC)[C@@H](C)O` [Compound 45] (Palmitoyl-TARLRKWMFI-NH2), the IC50 was greater than 10 µM and the inhibition at 0.3 µM is 70%.

As to `CCCCCCCCCCCCCCCC(=O)N[C@H](C(=O)N[C@@H](CC(=O)O)C(=O)N[C@@H](CCCNC(=N)N)C(=O)N[C@@H](CC(C)C)C(=O)N[C@@H](CCCNC(=N)N)C(=O)N[C@@H](CCCCN)C(=O)N[C@@H](Cc1c[nH]c2ccccc12)C(=O)N[C@@H](CCSC)C(=O)N[C@@H](Cc1ccccc1)C(=O)N[C@@H](C)C(N)=O)[C@@H](C)O` [Compound 52] (Palmitoyl-TDRLRKWMFA-NH2), the IC50 is greater than 10 µM and the inhibition at 0.3 µM is 70%.

Regarding `CCCCCCCCCCCCCCCC(=O)NCC(=O)N[C@@H](CO)C(=O)N[C@H](C(=O)N[C@@H](CC(=O)O)C(=O)N[C@@H](CCCNC(=N)N)C(=O)N[C@@H](CC(C)C)C(=O)N[C@@H](CCCNC(=N)N)C(=O)N[C@@H](CCCCN)C(=O)N[C@@H](Cc1c[nH]c2ccccc12)C(=O)N[C@@H](CCSC)C(=O)N[C@@H](Cc1ccccc1)C(=O)N[C@H](C(N)=O)[C@@H](C)CC)[C@@H](C)O` [Compound 29, Pal-GSTDRLRKWMFI-amide] (Palmitoyl-GSTDRLRKWMFI-NH2), the IC50 fell in the range of 0.501 to 1 µM and the inhibition at 0.3 µM was found to be 53 ± 14%.

In the case of `CCCCCCCCCCCCCCCC(=O)NCC(=O)N[C@@H](CO)C(=O)N[C@H](C(=O)N[C@@H](CC(=O)O)C(=O)N[C@@H](CCCNC(=N)N)C(=O)N[C@@H](CC(C)C)C(=O)N[C@@H](CCCNC(=N)N)C(=O)N[C@@H](CCCCN)C(=O)N[C@@H](Cc1c[nH]c2ccccc12)C(=O)N[C@@H](CCSC)C(=O)N[C@@H](Cc1ccccc1)C(=O)N[C@@H](C)C(N)=O)[C@@H](C)O` [Compound 37] (Palmitoyl-GSTDRLRKWMFA-NH2), the IC50 lay in the range of 1 to 5 µM and the inhibition at 0.3 µM came to 45 ± 19%.

Take `CCCCCCCCCCCCCCCC(=O)N[C@@H](CC(=O)O)C(=O)N[C@@H](CCCNC(=N)N)C(=O)N[C@@H](CC(C)C)C(=O)N[C@@H](CCCNC(=N)N)C(=O)N[C@@H](CCCCN)C(=O)N[C@@H](Cc1c[nH]c2ccccc12)C(=O)N[C@@H](CCSC)C(=O)N[C@@H](C)C(=O)N[C@H](C(N)=O)[C@@H](C)CC` [Compound 42] (Palmitoyl-DRLRKWMAI-NH2): the IC50 fell in the range of 5 to 10 µM and the inhibition at 0.3 µM was 65%.

Consider `CCCCCCCCCCCCCCCC(=O)N[C@@H](CCCNC(=N)N)C(=O)N[C@@H](CC(C)C)C(=O)N[C@@H](CCCNC(=N)N)C(=O)N[C@@H](CO)C(=O)N[C@H](C(=O)N[C@@H](CCCNC(=N)N)C(=O)N[C@@H](CO)C(=O)N[C@@H](CC(C)C)C(=O)N[C@@H](CCCNC(=N)N)C(=O)N[C@@H](CC(N)=O)C(=O)N[C@H](C(=O)N[C@H](C(=O)N[C@@H](Cc1c[nH]cn1)C(=O)N[C@@H](Cc1c[nH]c2ccccc12)C(=O)N[C@@H](CC(N)=O)C(N)=O)[C@@H](C)CC)[C@@H](C)CC)[C@@H](C)CC` [Compound 5] (Palmitoyl-RLRSIRSLRNIIHWN-NH2), for which the IC50 was 1 to 5 µM and the inhibition at 0.3 µM worked out at 54 ± 13%.

In the case of `CCCCCCCCCCCCCCCC(=O)N[C@@H](CC(=O)O)C(=O)N[C@@H](CCCNC(=N)N)C(=O)N[C@@H](CC(C)C)C(=O)N[C@@H](CCCNC(=N)N)C(=O)N[C@@H](CCCCN)C(=O)N[C@@H](Cc1c[nH]c2ccccc12)C(=O)N[C@@H](CCSC)C(=O)N[C@@H](Cc1ccccc1)C(=O)N[C@H](C(N)=O)[C@@H](C)CC` [Compound 31] (Palmitoyl-DRLRKWMFI-NH2), the IC50 is 1 to 5 µM and the inhibition at 0.3 µM turned out to be 30 ± 17%.

In the case of `CCCCCCCCCCCCCCCC(=O)NCC(=O)N[C@@H](CO)C(=O)NCC(=O)N[C@@H](CCCNC(=N)N)C(=O)N[C@@H](CC(C)C)C(=O)N[C@@H](CCCNC(=N)N)C(=O)N[C@@H](CCCCN)C(=O)N[C@@H](Cc1c[nH]c2ccccc12)C(=O)N[C@@H](CCSC)C(=O)N[C@@H](Cc1ccccc1)C(=O)N[C@H](C(N)=O)[C@@H](C)CC` [Compound 26] (Palmitoyl-GSGRLRKWMFI-NH2), the IC50 fell in the range of 1 to 5 µM and the inhibition at 0.3 µM is 63%.

For `CCCCCCCCCCCCCCCC(=O)N[C@@H](CO)C(=O)N[C@H](C(=O)N[C@@H](CC(=O)O)C(=O)N[C@@H](CCCNC(=N)N)C(=O)N[C@@H](CC(C)C)C(=O)N[C@@H](CCCNC(=N)N)C(=O)N[C@@H](CCCCN)C(=O)N[C@@H](Cc1c[nH]c2ccccc12)C(=O)N[C@@H](CCSC)C(=O)N[C@@H](Cc1ccccc1)C(=O)N[C@H](C(N)=O)[C@@H](C)CC)[C@@H](C)O` [Compound 33] (Palmitoyl-STDRLRKWMFI-NH2), the IC50 was 1 to 5 µM and the inhibition at 0.3 µM came to 36 ± 9%.

`CCCCCCCCCCCCCCCC(=O)N[C@H](C(=O)N[C@@H](CC(=O)O)C(=O)N[C@@H](CCCNC(=N)N)C(=O)N[C@@H](CC(C)C)C(=O)N[C@@H](CCCNC(=N)N)C(=O)N[C@@H](C)C(=O)N[C@@H](Cc1c[nH]c2ccccc12)C(=O)N[C@@H](CCSC)C(=O)N[C@@H](Cc1ccccc1)C(=O)N[C@H](C(N)=O)[C@@H](C)CC)[C@@H](C)O` [Compound 49] (Palmitoyl-TDRLRAWMFI-NH2): the IC50 was greater than 10 µM and the inhibition at 0.3 µM turned out to be 42%.

As to `CCCCCCCCCCCCCCCC(=O)N[C@H](C(=O)N[C@@H](CC(=O)O)C(=O)N[C@@H](C)C(=O)N[C@@H](CC(C)C)C(=O)N[C@@H](CCCNC(=N)N)C(=O)N[C@@H](CCCCN)C(=O)N[C@@H](Cc1c[nH]c2ccccc12)C(=O)N[C@@H](CCSC)C(=O)N[C@@H](Cc1ccccc1)C(=O)N[C@H](C(N)=O)[C@@H](C)CC)[C@@H](C)O` [Compound 46] (Palmitoyl-TDALRKWMFI-NH2), the IC50 is greater than 10 µM and the inhibition at 0.3 µM turned out to be 58%.

`CCCCCCCCCCCCCCCC(=O)NCC(=O)N[C@@H](CO)C(=O)N[C@H](C(=O)N[C@@H](CC(=O)O)C(=O)N[C@@H](CCCNC(=N)N)C(=O)N[C@@H](CC(C)C)C(=O)N[C@@H](CCCNC(=N)N)C(=O)N[C@@H](CCCCN)C(=O)N[C@@H](Cc1c[nH]c2ccccc12)C(=O)N[C@@H](CCSC)C(=O)N[C@@H](C)C(=O)N[C@H](C(N)=O)[C@@H](C)CC)[C@@H](C)O` [Compound 38] (Palmitoyl-GSTDRLRKWMAI-NH2): the half-inhibitory concentration (IC50) fell in the range of 1 to 5 µM and the inhibition at 0.3 µM was 60 ± 8%.

In the case of `CCCCCCCCCCCCCCCC(=O)NCC(=O)N[C@@H](CO)C(=O)N[C@H](C(=O)N[C@@H](CC(=O)O)C(=O)N[C@@H](CCCNC(=N)N)C(=O)N[C@@H](CC(C)C)C(=O)N[C@@H](CCCNC(=N)N)C(=O)N[C@@H](CCCCN)C(=O)N[C@@H](C)C(=O)N[C@@H](CCSC)C(=O)N[C@@H](Cc1ccccc1)C(=O)N[C@H](C(N)=O)[C@@H](C)CC)[C@@H](C)O` [Compound 40] (Palmitoyl-GSTDRLRKAMFI-NH2), the IC50 was in the range of 0.501 to 1 µM and the inhibition at 0.3 µM was 61 ± 20%.
